{
  "source": "patent US20100190727A1",
  "about": "“USE OF MONOSACCHARIDES AND COMPOSITION THEREFOR” (L'OREAL, priority 2008, published 2010)",
  "key": {"[1]": {"tested_on": "dermal fibroblasts of the reconstructed skin", "experiment": "Proliferation of dermal fibroblasts in whole reconstructed skin (propidium iodide nuclei count on frozen sections)", "type": "cell-based, human", "conditions": "5 mM, 48 hours of treatment, reconstructed skin versus control skin", "text": "Rhamnose was studied on a model of whole reconstructed skin in order to measure its anti-ageing efficacy on the dermal compartment.\n(§1) Briefly, the model of reconstructed skin used is that described by Bell et al. (Bell E. et al., The reconstitution of living skin, J. Invest. Dermatol., 1983, July; 81): it includes a dermal equivalent on which is reconstructed a multistratified epidermis; the dermal equivalent is manufactured from acid-soluble collagen, culture medium containing serum and normal adult human fibroblasts. After 5 days of shrinkage, this equivalent is inoculated with keratinocytes and then cultured for 6 days in immersion and for 7 days in emersion in order to obtain a multistratified and differentiated epidermis having a horny layer.\nThe reconstructed skin is treated with 5 mM rhamnose for 2 days and 5 days in the culture medium; after the treatment, the reconstructed skins are included in Tissue Tek in order to produce frozen sections 7 μm thick with a cryostat. […] Three frozen sections are prepared at random on each reconstructed skin; on each section, two microscopic fields (25× objective lens) are analysed by fluorescence microscopy and photographed. The dermal fibroblasts are thus counted for each reconstructed skin on six images in total representing the six microscopic fields considered. […]"}, "[2]": {"tested_on": "keratinocytes (HaCat line)", "experiment": "Proliferation of keratinocytes (HaCat line) in culture medium deficient in growth factors; Cyquant, Nile red and XTT probes", "type": "cell-based", "method": "The keratinocytes (HaCat line) are cultured under two conditions: whole defined culture medium (standard condition) and culture medium deficient in growth factors. This deficient medium gives rise to a controlled delay in cell proliferation. Under these conditions, it is then possible to measure the effects of compounds capable of compensating for the deficiency in growth factors of the culture medium and thus of relaunching the cell multiplication and/or of stimulating cell metabolism.\nThe keratinocyte proliferation is measured by means of three markers on the same cell population: the level of DNA, which is proportional to the number of cells (Cyquant probe), the level of constituent polar lipids of cell membranes (Nile red probe) and the mitochondrial respiration, which reflects the general cell metabolism (XTT probe)."}, "type I procollagen": {"tested_on": "type I procollagen", "experiment": "Synthesis of procollagen 1 in the dermis of reconstructed skin (indirect immunofluorescence)", "type": "cell-based, human", "conditions": "for procollagen 1 synthesis: reconstructed skin", "text": "as §1\nConventional detection via indirect immunofluorescence of type I procollagen in the dermis of the reconstructed skin was also performed on other series of frozen sections (anti-procoll 1 antibody (MAB 1912 Millipore)+FTIC-coupled conjugate (112-095-068 Jackson Immunoresearch)). In order to obtain bearings within the cutaneous architecture during the microscopic examination of the sections, the cell nuclei of the keratinocytes and fibroblasts are localized by staining them with propidium iodide, as described above. Three frozen sections are prepared at random on each reconstructed skin and on each section, and two microscopic fields (25× objective lens) are analysed by fluorescence microscopy and photographed. The levels of fluorescence proportional to the amount of type I procollagen are compared between the control skin and the skin treated with rhamnose."}, "[3]": {"conditions": "1 mM, medium depleted in growth factors, versus untreated control"}},
  "data": [
    {"smiles": "C[C@H](O)[C@H](O)[C@@H](O)[C@@H](O)C=O", "note": "[rhamnose]", "values": [
      {"measurement": "growth of the dermal fibroblasts", "setting": "[1]", "result": "induces stimulation of growth"},
      {"measurement": "efficacy on keratinocyte proliferation markers", "setting": "[2]; 500 μM, medium depleted in growth factors", "result": "already show efficacy"},
      {"measurement": "level of DNA (Cyquant)", "setting": "[2]; [3]", "result": "significantly increased"},
      {"measurement": "level of polar lipids (Nile red signal)", "setting": "[2]; [3]", "result": "significantly increased"},
      {"measurement": "mitochondrial respiration (XTT signal)", "setting": "[2]; [3]", "result": "significantly increased"},
      {"measurement": "keratinocyte proliferation", "setting": "[2]; HaCat keratinocytes cultured in medium depleted in growth factors, versus untreated control", "result": "activate keratinocyte proliferation"},
      {"measurement": "green fluorescence proportional to the amount of type I procollagen", "setting": "type I procollagen; 1 mM for 120 hours, reconstructed skin versus control skin", "result": "marked increase in green fluorescence"},
      {"measurement": "procollagen 1 synthesis", "setting": "type I procollagen; 1 mM", "result": "stimulation of procollagen 1 synthesis"},
      {"measurement": "procollagen 1 synthesis", "setting": "type I procollagen; 5 mM", "result": "stimulation of procollagen 1 synthesis"}
    ]}
  ]
}
